Data published in the supplement of paper PMC10477900.
Counter-ions that a name gives are not always drawn.

Key:
HCT116 [1] = assay: viability inhibition vs untreated; higher = more cytotoxic; conditions: 72 h
HCT116 [2] = conditions: 72 h
Procedure: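 HCT116 control and MTA1-KO (CRISPR) HCT116 cells were seeded in 384-well plates (800 cells/well), treated 16 h later with 237 metabolism-related anticancer drugs at five doses (10 uM, 2 uM, 400 nM, 80 nM, 16 nM) for 72 h, two replicates; viability by CCK8. Values are % inhibition of viability relative to untreated cells, plus fitted IC50.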

| Compound | viability inhibition (HCT116 [1]; genotype: MTA1-KO, 16 nM) [%] | viability inhibition (HCT116 [1]; genotype: MTA1-KO, 80 nM) [%] | viability inhibition (HCT116 [1]; genotype: MTA1-KO, 400 nM) [%] | viability inhibition (HCT116 [1]; genotype: MTA1-KO, 2000 nM) [%] | viability inhibition (HCT116 [1]; genotype: MTA1-KO, 10000 nM) [%] | viability inhibition (HCT116 [1]; genotype: control, 16 nM) [%] | viability inhibition (HCT116 [1]; genotype: control, 80 nM) [%] | viability inhibition (HCT116 [1]; genotype: control, 400 nM) [%] | viability inhibition (HCT116 [1]; genotype: control, 2000 nM) [%] | viability inhibition (HCT116 [1]; genotype: control, 10000 nM) [%] | IC50 (HCT116 [2]; genotype: MTA1-KO) [µM] | IC50 (HCT116 [2]; genotype: control) [µM] |
| --- | --- | --- | --- | --- | --- | --- | --- | --- | --- | --- | --- | --- |
| CC(=NNC(=S)N1CCC1)c1ccccn1 | 113 | 110 | 111 | 108 | 107 | 107 | 110 | 95.8 | 105 | 111 | < 0.016 | < 0.016 |
| CC(C)(C#N)c1ccc(N2C(=O)OCc3cnc4ccc(-c5cnc6ccccc6c5)cc4c32)cc1 | -21.1 | -19.6 | -26.7 | -3.23 | 30.7 | 8.09 | -11.9 | -11.4 | -0.304 | 45.6 | > 10 | > 10 |
| CCCC[S+]([O-])c1sc2nc(-c3cccs3)cc(-c3ccccc3)c2c1N (stereo not given) | 13.3 | 12.3 | 5.6 | 9.12 | 41.9 | 5.17 | 3.85 | 2.26 | 4.74 | 8.23 | > 10 | > 10 |
| CCc1ccc(/C=C2/SC(=S)NC2=O)cc1 | -4.9 | -10 | -9.11 | -3.79 | 1.27 | 7.22 | 4.14 | 13 | 9.23 | 12.7 | > 10 | > 10 |
| CN1CCN(C(=O)/C=C/c2ccc([N+](=O)[O-])o2)CC1 | -10.2 | -18.9 | -24 | -18.6 | 19.7 | 0.552 | -3.92 | -15.2 | -0.064 | 11 | > 10 | > 10 |
| CN1CCN(C(=O)COc2ccc(C34CC5CC(CC(C5)C3)C4)cc2)CC1 | 0.53 | 0.971 | 2.4 | 3.12 | 55.4 | -2.5 | -2.81 | -1.07 | -8.95 | 7.86 | 9.27 | > 10 |
| CO[C@@H](C)Cn1c(=O)n(C)c2cnc3ccc(-c4cncc(C(C)(C)O)c4)cc3c21 | -8.01 | 27.7 | 58.8 | 90.6 | 102 | -0.225 | -9.63 | 58.5 | 90.9 | 104 | 0.289 | 0.382 |
| COc1ccc(-c2ccc3c(N4CCOCC4)nc(N4C[C@@H](C)O[C@@H](C)C4)nc3n2)cc1CO | 14.6 | 18.1 | 36.5 | 68.5 | 82.3 | 13.2 | 20.4 | 21.5 | 59.4 | 72.9 | 0.753 | 2.24 |
| COc1ccc(-c2ccccc2)cc1NS(=O)(=O)c1cc(Cl)cc(Cl)c1O | 4.57 | -1.5 | -3.79 | -1.98 | 8.72 | -1.23 | 6.1 | 4.53 | 6.77 | 13.4 | > 10 | > 10 |
| Cc1ccc(S(=O)(=O)Cc2nc(-c3ccc(C(=O)NCc4cccnc4)cc3)oc2C)cc1 | 5.08 | -6.5 | -22.3 | -11.9 | 2.23 | 9.95 | 6.71 | 18.9 | 19 | 26.9 | > 10 | > 10 |
| Cc1ccc2nc(CN(CCN(Cc3nc4ccc(C)cc4[nH]3)Cc3nc4ccc(C)cc4[nH]3)Cc3nc4ccc(C)cc4[nH]3)[nH]c2c1 | 0.589 | -11.3 | -3.97 | 0.541 | 76.8 | 6.37 | 14.6 | 2.85 | 20.1 | 64.1 | 6.48 | 7.39 |
| Cc1nc(-c2nc(-c3ccc(OC(F)(F)F)cc3)no2)nn1Cc1cccc(N2CCC(S(C)(=O)=O)CC2)c1 | 1.35 | 25 | 26.2 | 29.9 | 45.9 | 13.9 | 17.5 | 21.8 | 14.5 | 23.9 | > 10 | > 10 |
| N#Cc1c(O)c2c(-c3ccc(-c4ccccc4O)cc3)csc2[nH]c1=O | 7.25 | 0.475 | 5.93 | 6.59 | 21.8 | -9.79 | -10.7 | -8.84 | -17.7 | 3.16 | > 10 | > 10 |
| NCC(=O)Nc1ccc(-n2nc(C(F)(F)F)cc2-c2ccc3c(ccc4ccccc43)c2)cc1 | -0.655 | 3.58 | 10.6 | 45.3 | 77 | 8.04 | 10.5 | 9.27 | 67 | 74.1 | 2.57 | 1.5 |
| Nc1nonc1C(=Nc1ccc(F)c(Cl)c1)NO | 11.1 | 13.3 | 16.9 | 23.6 | 36.3 | 10.4 | 19 | -4.25 | 11 | 9.01 | > 10 | > 10 |
| O=C(O)c1c[nH]c2cc(Cl)c(-c3ccc(C4(O)CCC4)cc3)cc12 | -7.04 | 0.458 | -9.68 | 0.998 | 72.2 | -1.55 | -12.5 | -12.9 | -5.3 | 7.54 | 3.94 | > 10 |
| O=C(Oc1cc(S(=O)(=O)c2ccccc2)ccc1[N+](=O)[O-])c1ccc(Cl)cc1 | 13.8 | 11.7 | 15.7 | 20 | -32.5 | -2.81 | -4.51 | -7.2 | -8.31 | 16.7 | > 10 | > 10 |
| O=C1CC(c2c[nH]c3ccc(F)cc23)C(=O)N1 (stereo not given) | 7.19 | 3.94 | 6.53 | 3.06 | 34 | 15.5 | -12.9 | -15.6 | -1.97 | 11.6 | > 10 | > 10 |
| O=C1NC(=O)/C(=C/c2ccc3nccc(-c4ccncc4)c3c2)S1 | -12 | -22.4 | 10.1 | 64.1 | 99.4 | 1.82 | -12 | 5.41 | 56.4 | 75.1 | 1.21 | 2.02 |
| O=[N+]([O-])c1ccc(Nc2ccccc2-c2ccccc2)c2nonc12 | 2.01 | -8.53 | -10.8 | -6.96 | 68.6 | 9.25 | 24.7 | 13.3 | 14.3 | 23.9 | 8.18 | > 10 |
| CC(C)n1c(/C=C/[C@H](O)C[C@H](O)CC(=O)O)c(-c2ccc(F)cc2)c2ccccc21 (racemic) [Fluvastatin sodium salt] | 12.1 | 16.7 | 12.8 | 19.3 | 60.4 | 5.71 | 10.5 | 12.1 | 38 | 32.9 | 8.96 | > 10 |
| Nc1ccccc1S(N)(=O)=O [2-Aminobenzenesulfonamide] | -12 | -6.34 | -8.18 | -6.12 | -8.74 | -4.67 | -10.5 | -7.82 | -0.883 | 19.7 | > 10 | > 10 |
| COc1cc2c(cc1O)CC[C@@H]1[C@@H]2CC[C@]2(C)[C@@H](O)CC[C@@H]12 [2-Methoxyestradiol] | 12.6 | 9.89 | 15.7 | 38.7 | 80.2 | 8.28 | 14.6 | 22.6 | 24.1 | 33.6 | 3.34 | > 10 |
| CN(Cc1ccccc1)c1ccc2cc(C(=O)O)c(=O)oc2c1 [7ACC2] | -27.3 | -0.988 | 20.9 | 24.6 | 29 | 15 | -0.73 | 50.7 | 64.6 | 80.8 | > 10 | 0.373 |
| CC(N)=NCc1cccc(CN)c1 [1400W dihydrochloride] | 5.1 | -4.81 | -3.44 | -9.66 | 42.6 | 5.38 | -11.1 | -13.9 | -9.74 | 2.89 | > 10 | > 10 |
| Cc1ccc2c(c1)C(=O)[C@]1(O)CCN(c3ccccc3)C1=N2 [(-)-Blebbistatin] | 2.62 | -5.47 | -2.06 | -3.88 | -5.36 | -9 | -4.56 | -13.5 | -18.9 | -8.68 | > 10 | > 10 |
| O=C(O[C@@H]1Cc2c(O)cc(O)cc2O[C@@H]1c1cc(O)c(O)c(O)c1)c1cc(O)c(O)c(O)c1 [(-)-Epigallocatechin Gallate] | 13 | -1.62 | 5.38 | 12 | 19.4 | -8.68 | -5.93 | -14.9 | -4.61 | -3.45 | > 10 | > 10 |
| O=C(O)[C@@]1(CCCCCCOc2ccc(Cl)cc2)CO1 [(R)-Etomoxir sodium salt] | -11.4 | -21.5 | -17.4 | -13.9 | 37.6 | 12.3 | 19.7 | 14.6 | 15.3 | 26.1 | > 10 | > 10 |
| C[C@H](Oc1cc(-c2cnn(C3CCNCC3)c2)cnc1N)c1c(Cl)ccc(F)c1Cl [(S)-crizotinib] | -3.98 | -2.9 | -13.5 | -16.1 | 66.9 | 6.82 | -13.4 | -0.064 | -12.1 | -7.51 | 9.42 | > 10 |
| CCC(C)(C)C(=O)O[C@H]1C[C@@H](C)C=C2C=C[C@H](C)[C@H](CC[C@@H]3C[C@@H](O)CC(=O)O3)[C@H]21 [Simvastatin] |  |  |  |  |  |  |  |  |  |  | > 10 | > 10 |
